Measured values taken from patent US20030175769A1, “Reagents for improved PCR” (priority 2001, published 2003).

How the values were obtained:
[1] = tested on: plasmid containing the complete DPD cDNA; experiment: Real time PCR signal intensity, FRET-HybProbe formate; assay type: biochemical; conditions: 0,1 g/μl compound
Text: For this experiment, the primer mix according to example 3 was used. Various amounts of plasmid containing the complete DPD cDNA ranging from 0,4 to 40 fg were amplified with the primer mix by means of PCR under the conditions of example 3 in the presence or absence of […] compound III according to example 2.
For Real Time PCR detection, FRET-hybridization probes from the LightCycler Dihydropyrimidin-Dehydrogenase (DPD) mRNA quantification kit (Roche Molecular Biochemicals, cat. No. 3136957) were used in concentrations according to the manufacturer's instructions.

[2] = tested on: PCR amplification mixture; experiment: Hot start effect when added to a PCR amplification mixture; assay type: biochemical

In the case of `O=C(O)C1=C/C(=C(/c2ccc(O)c(C(=O)O)c2)c2cc(Cc3ccc(O)c(C(=O)O)c3)c(O)c(C(=O)O)c2)C=CC1=O` [Compound I], the “specific amplification signal (FIG. 3a)” value ([1]; 0,4 fg template DNA) is reported as “can only be obtained in presence of the additive”, the “specific signaling, cycle number of detection (FIG. 3b,c)” value ([1]; higher template concentrations (4 fg, 40 fg)) is reported as “detected at earlier cycle numbers” and the hot start effect [2] is reported as “extensive hot start effect”.
